# According to PMC6151695, “Novel Selective Estrogen Receptor Ligand Conjugates Incorporating Endoxifen-Combretastatin and Cyclofenil-Combretastatin Hybrid Scaffolds: Synthesis and Biochemical Evaluation” (Molecules : A Journal of Synthetic Chemistry and Natural …, 2017):
# Read-outs that look alike come from different tables or passages of the source.
# How the values were obtained:
# [1] = tested on: MCF-7 human breast cancer cell line; assay: Alamar Blue assay for antiproliferative effects; assay type: cell-based; conditions: Homo sapiens, MCF7, 72 h, read-out: IC50 (μM), antiproliferative effects
# [2] = tested on: MCF-7 cells; assay: Lactate dehydrogenase (LDH) assay for cytotoxicity
# [3] = target: T1, human ERα (Homo sapiens, UniProt P03372); assay: Estrogen receptor fluorescence polarisation competitive binding assay, ERα; conditions: for IC50: competitive binding, fluorescence polarisation, read-out: ERα IC50; for Selectivity (α/β): ratio of RBA values ERα relative to ERβ; for ERα RBA: relative binding affinity, estradiol (5.7 nM) = 100%
# T1 construct: purchased Invitrogen
# T1 sequence (P03372 1-595): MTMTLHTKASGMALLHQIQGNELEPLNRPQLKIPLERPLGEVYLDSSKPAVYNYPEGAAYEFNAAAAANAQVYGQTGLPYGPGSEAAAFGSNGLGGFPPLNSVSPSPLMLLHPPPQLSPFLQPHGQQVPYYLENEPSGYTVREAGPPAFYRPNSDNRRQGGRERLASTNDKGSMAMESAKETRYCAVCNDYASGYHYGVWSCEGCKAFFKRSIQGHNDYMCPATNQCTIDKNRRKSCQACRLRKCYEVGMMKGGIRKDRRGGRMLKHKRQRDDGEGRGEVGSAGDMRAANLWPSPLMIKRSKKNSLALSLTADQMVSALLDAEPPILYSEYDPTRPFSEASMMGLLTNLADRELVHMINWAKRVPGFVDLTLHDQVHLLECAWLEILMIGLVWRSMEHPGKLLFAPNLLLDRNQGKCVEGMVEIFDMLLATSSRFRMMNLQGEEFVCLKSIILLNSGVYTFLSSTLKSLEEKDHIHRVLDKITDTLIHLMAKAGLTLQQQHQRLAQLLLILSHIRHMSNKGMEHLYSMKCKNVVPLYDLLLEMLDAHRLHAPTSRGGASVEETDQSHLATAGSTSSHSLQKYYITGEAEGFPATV
# [4] = target: T2, human ERβ (Homo sapiens, UniProt Q92731); assay: Estrogen receptor fluorescence polarisation competitive binding assay, ERβ; conditions: competitive binding, fluorescence polarisation; read-out: ERβ IC50
# T2 construct: purchased Invitrogen
# T2 sequence (Q92731 whole entry): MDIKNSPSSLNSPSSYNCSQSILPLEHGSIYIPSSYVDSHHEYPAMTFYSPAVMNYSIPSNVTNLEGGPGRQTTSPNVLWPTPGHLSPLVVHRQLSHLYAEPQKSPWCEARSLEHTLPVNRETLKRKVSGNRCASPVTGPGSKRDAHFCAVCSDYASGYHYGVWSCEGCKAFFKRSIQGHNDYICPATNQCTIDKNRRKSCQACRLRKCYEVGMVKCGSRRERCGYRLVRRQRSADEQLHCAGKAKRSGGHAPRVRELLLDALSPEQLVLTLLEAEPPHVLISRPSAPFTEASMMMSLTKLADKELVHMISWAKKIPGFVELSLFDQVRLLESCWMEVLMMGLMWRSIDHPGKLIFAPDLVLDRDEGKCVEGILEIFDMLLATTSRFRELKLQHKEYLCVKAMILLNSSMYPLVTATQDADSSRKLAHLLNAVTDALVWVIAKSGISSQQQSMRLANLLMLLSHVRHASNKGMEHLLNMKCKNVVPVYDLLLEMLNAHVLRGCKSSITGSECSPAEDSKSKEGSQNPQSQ
# [5] = tested on: MCF-7 cells; conditions: human
# [6] = in vitro; conditions: plasma
# [7] = HPLC stability study in phosphate buffer
IC50 [3] [nM],Selectivity (α/β) [3],ERα RBA [3] [%],IC50 [4] [nM],"half-life at 14.6 µg/mL ([7]; half-life, pH range 4–9) [h]",SMILES,"IC50 ([1]; MCF-7, 72 h, Alamar Blue) [µM]",cytotoxicity (LDH assay) [2] [%],IC50 [1] [µM],cytotoxicity (LDH assay) [5] [%],remained intact in plasma at 12 h [%],half-life [6] [h],"remained at 12 h ([7]; pH range 4–9, 12 h) [%]"
–,–,–,–,–,"COc1ccc(/C=C\c2cc(OC)c(OC)c(OC)c2)cc1O [CA4, Combretastatin A-4, reference compound]",0.008,13,–,–,–,–,–
47,2.55,12.1,118,–,CC/C(=C(\c1ccc(O)cc1)c1ccc(OCCNC)cc1)c1ccccc1 [Endoxifen],0.029,23,–,–,–,–,–
–,–,–,–,–,"CC/C(=C(\c1ccc(O)cc1)c1ccc(OCCN(C)C(=O)CCC(=O)Oc2cc(/C=C\c3cc(OC)c(OC)c(OC)c3)ccc2OC)cc1)c1ccccc1 [Compound 16b, N-(2-{4-[(Z)-1-(4-Hydroxyphenyl)-2-phenylbut-1-enyl]phenoxy}ethyl)-N-methyl succinamic acid 2-methoxy-5-[(Z)-2-(3,4,5-trimethoxyphenyl)vinyl]phenyl ester]",–,–,0.0057,4.1,77,> 48,> 90
70.9,1.29,8.04,90.1,> 20,"CC/C(=C(\c1ccccc1)c1ccc(OCCN(C)C(=O)CCC(=O)Oc2cc(/C=C(/C(=O)OC)c3cc(OC)c(OC)c(OC)c3)ccc2OC)cc1)c1ccccc1 [Compound 16c, N-{2-[4-((Z)-1,2-Diphenylbut-1-enyl)phenoxy]ethyl}-N-methylsuccinamic acid 2-methoxy-5-[(E)-2-methoxycarbonyl-2-(3,4,5-trimethoxyphenyl)vinyl]phenyl ester]",–,–,–,–,–,–,–
